# Laboratory results from patent publication US9771430B2, “Method of treating a metabolic disorder induced by obesity in a subject in need thereof by administering MK2/3 inhibitors” (THE TRUSTEES OF COLUMBIA UNIVERSITY IN THE CITY OF NEW YORK, priority 2011, dated 2017).
# What was measured:
# [1] = test system: calcineurin; test: Calcineurin activity in primary hepatocytes; assay type: cell-based, mouse
# Description: HEK293T (ATCC) cells were cultured in DMEM containing 10% FBS (HyClone), […] penicillin-streptomycin. Mouse primary hepatocytes were isolated and cultured as previously described (18). Cellular fractionation studies were conducted as previously reported (18). For reporter studies, Ad-CRE-luc infected hepatocytes (1 pfu per cell) were exposed to glucagon (Gcg, 100 nM) for 2˜4 h. For cyclosporine A (CsA, 10 μM) or okadaic acid (OA, 100 nM) or cell permeable calcineurin autoinhibitory peptide (10 μM) or CN585 (100 μM) or Calyculin A (10 nM) or Xestospongin C (Xc, 2 μM) or H89 (30 μM) or BAPTA (50 μM) inhibition, hepatocytes were pre-treated with the inhibitors for one hour. Luciferase activities were normalized to β-galactosidase activity from adenoviral-encoded RSV β-gal. Calcineurin activity (test kit from Enzo Life Sciences) and cellular cAMP levels (test kit from Cayman Chemical Company) were measured according to manufacturer's instructions.
# [2] = test system: CaMKII; test: Hepatic CaMKII phosphorylation in mice; assay type: in vivo, mouse
# Description: FIGS. 1A-J. Glucagon and fasting activates hepatic CaMKII. FIG. 1A. CaMKII enzyme activity was assayed in triplicate wells of primary mouse HCs stimulated with 100 nM glucagon (Gluc) or vehicle control (Veh) for the indicated times (*P<0.05 and **P<0.01 vs. Veh; mean±S.E.M.). FIGS. 1B-1J. Extracts of HCs or liver were probed for phospho-CaMKII, total CaMKII, and β-actin by immunoblot assay. FIG. 1B. HCs were incubated with […] glucagon for the indicated times; FIG. 1C. Glucagon was added to HCs that were pre-treated for 1 h with vehicle control (Veh) or 5 μM BAPTA-AM; FIG. 1D. Glucagon was added to HCs that were pre-treated with 0.5 μM xestospongin (XesC) or to HCs from Ip3r1fl/fl mice transduced with adeno-LacZ control or adeno-Cre (bar graph=Ip3r1 mRNA levels); FIG. 1E. Glucagon was added to HCs that were pre-treated for 1 h with vehicle control (Veh) or 10 μM H89. FIG. 1F. […] FIGS. 1G-1J. In vivo experiments. In FIG. 1G, mice were treated for 30 min with 200 μg kg−1 body weight of glucagon i.p., and in FIG. 1H, mice were pre-treated with 10 pmol g−1 xestospongin C or vehicle control i.p. 4 days prior to glucagon treatment. In FIGS. 1I-1J, mice were fed ad libitum or fasted for 12 h, or fasted for 12 h and then re-fed for 4 h.
# FIGS. 28A-G. (Related to FIGS. 1 and 22). FIG. 28A Mice were injected i.p. with the indicated doses of glucagon and sacrificed 15 min later. The livers were probed for phospho- and total CaMKII and β-actin by immunoblot. FIG. 28B Mice (n=5/group) were fed ad libitum or fasted for 12 h and then plasma was assayed for glucagon (*P=0.007; mean±S.E.M.). FIG. 28C Mice were injected i.p. with 10 pmol g^−1 xestospongin C (XesC) or vehicle control each day for 4 days and then fed ad libitum or fasted for 12 h. Liver phospho-CaMKII, total CaMKII, and β-actin levels were assayed by immunoblot. FIG. 28D Immunoblot of CaMKII in HCs transduced with adeno-LacZ vs. CA-CaMKII. FIG. 28E HCs were transduced with adeno-LacZ or KD-CaMKII. Cells were serum-depleted overnight and then assayed for CaMKII activity (*P<0.005; mean±S.E.M.). […]
# (§1) Camk2g−/− mice were generated as described previously (Backs et al., 2010) and crossed onto the C57BL6/J background. […] Fasting blood glucose was measured in mice that were fasted for 12-14 h, with free access to water, using a glucose meter (One Touch Ultra, Lifescan). […] Blood glucose levels were measured over the following 2 h. […]
# as §1, with “Camk2g^−/−” for “Camk2g−/−”, “background. ob/ob mice were obtained from Jackson Labs.” for “background.”
# [3] = test system: IP3R; test: IICR in freshly isolated peritoneal cavity macrophages of Xestospongin C-treated ob/ob mice; assay type: in vivo, mouse; conditions: treatment of ob/ob mice
# Excerpt: FIGS. 50A-M. The role of IP3R in obesity/insulin resistance induced hyperglycemia and gluconeogenesis. FIG. 50A. Evidence that Xestospongin C Treatment of ob/ob Mice Inhibits IP3R Assay of IICR in Freshly Isolated Peritoneal Cavity Macrophages. FIG. 50B-E. Inhibition of IP3R Reduces Fasting Blood Glucose Levels in ob/ob Mice. FIG. 50F. Inhibition of IP3R Reduces Hepatic Expression of PEPCK, G6Pase, and PGC1α in ob/ob. FIG. 50G-I. Inhibition of IP3R Reduces Expression of PEPCK, G6Pase, and PGC1α in Palmitate-Treated Hepatocytes as a Model of ER Stress and Insulin Resistance. FIG. 50J-K. Inhibition of IP3R Reduces Expression of G6Pase and PEPCK in Akt-Inhibited Hepatocytes as a Model of Insulin Resistance. FIG. 50L. IP3R Activity is Required for Forskolin-Induced TORC2 Dephosphorylation. FIG. 50M. IP3R Activation is Required for TORC2 Nuclear Retention.
Molecule,calcineurin activation in response to glucagon and forskolin [1],"glucagon-induced CaMKII phosphorylation in liver ([2]; i.p. xestospongin C 10 pmol g−1 for 4 days, then glucagon)","fasting-induced phosphorylation of CaMKII in liver ([2]; xestospongin C treatment of the mice, 12 h fast)",IP3R (IICR) in peritoneal cavity macrophages [3],hepatic CaMKII phosphorylation ([2]; bolus of i.p. glucagon),glucagon dose capable of phosphorylating CaMKII in the liver (as low as) ([2]; i.p.)
C1CCC[C@H]2CCCN3CC[C@@H](CCCCCC[C@@H]4CCCN5CC[C@@H](CC1)O[C@@H]45)O[C@@H]23 [Xestospongin C],disrupted,markedly reduced,suppressed,Inhibits,,
glucagon: hormone used to stimulate hepatocytes and mice,,,,,induced,1 µg/kg
